The results in this text go back to patent EP4792811A1, “S1PR4 REGULATOR COMPOUND FOR MUSCLE DISEASE TREATMENT AND APPLICATION THEREOF” (Shengyuan Zetong (Shanghai) Pharmaceutical Co., Ltd, priority 2023, dated 2025).

The structures appear in SMILES notation. Entries after “also recorded” stand apart in the source; their conditions may differ.

In one data set the target is T1, hS1P1 (Homo sapiens, UniProt P21453).
T1 construct: expressed in transfected cells; host or cells: CHO-K1
As to the kind of experiment: Tango β-arrestin recruitment assay, Tango-hS1P1-CHO. The data set is classed as cell-based. Particulars: final concentration 45 µM, 9 serial dilutions at 5-fold intervals; 20 h drug treatment; luciferase readout. The source says: (§1) The Tango assay detects ligand-dependent GPCR activity through the interaction between β-arrestin and GPCRs. […] The NTEV fragment and the tetracycline transactivator (tTA), an artificial transcription factor, are fused at the C-terminus of the GPCR, while the CTEV fragment is fused to human β-arrestin 2. To enhance the stability of the interaction between GPCR and β-arrestin, a short sequence from the C-terminus of the human arginine vasopressin receptor 2 (V2 tail) is inserted between the GPCR and NTEV. The V2 tail contains multiple GRK phosphorylation sites, which strengthen β-arrestin binding upon phosphorylation. The CTEV fragment carries the stabile point mutation S219P and is truncated at residue 221 to remove the autoinhibitory C-terminal tail. Meanwhile, β-arrestin 2 is truncated to lack the entire C-terminal tail (residues 383-410 deleted). This truncation confers robust stimulus-dependent receptor desensitization, thereby improving detection sensitivity compared with wild-type β-arrestin 2. The UAS reporter construct consists of upstream activating sequence (UAS) elements, a minimal CMV promoter, and a tTA-dependent luciferase reporter gene. Therefore, constructing Tango cells requires the co-transfection of the above three plasmids into host cells. Upon GPCR activation and β-arrestin recruitment, the TEV enzyme at the β-arrestin terminus cleaves tTA from the GPCR C-terminus. The released tTA initiates tTA-dependent luciferase transcription, and compound activity is ultimately determined by measuring luminescence intensity.
(§2) • 1) Tango cell line from was digested from the culture dish respectively. After cell counting, the cells were plated at a density of 10,000 cells per well with […] into a white opaque 96-well plate (add 60 µL D'Hanks to the surrounding wells), and incubated overnight (20 h) in a 5% CO2 incubator at 37°C. The cell density will reach approximately 90% the next day. • 2) After 20 h, 30 µL of serially diluted compound solution was added to each well. The control group was supplemented with 30 µL F12K complete medium. Each group had three replicate wells. • 3) Samples were collected after 20 h of drug treatment.
(§3) (All compounds were tested at a final concentration of 45 µM, with 9 serial dilutions at 5-fold intervals. 1 µM BAF-312 was used as the positive control for S1PR1, and 25 µM BAF-312 was used as the positive control for S1PR4.)
(§4) ^a β-arrestin recruitment activity based on Tango-S1PR1-CHO-K1 and Tango-S1PR4-CHO-K1 cells, expressed as mean EC50 values ± SD. ^b FLIPR assays were performed using S1PR2-CHO and S1PR5-CHO cell lines, expressed as mean EC50 values ± SD. ^c β-arrestin recruitment activity based on PathHunter CHO-K1-S1PR3 cells, expressed as mean EC50 values ± SD. Data are the mean of at least two independent determinations, reported as mean ± SD (standard deviation).
(Activated receptors often draw arrestin, which recruitment assays turn into a signal.)

In the next data set the target is T2, hS1P4 (Homo sapiens, UniProt O95977).
T2 construct: expressed in transfected cells; host or cells: CHO-K1
T2 sequence (O95977 1-384): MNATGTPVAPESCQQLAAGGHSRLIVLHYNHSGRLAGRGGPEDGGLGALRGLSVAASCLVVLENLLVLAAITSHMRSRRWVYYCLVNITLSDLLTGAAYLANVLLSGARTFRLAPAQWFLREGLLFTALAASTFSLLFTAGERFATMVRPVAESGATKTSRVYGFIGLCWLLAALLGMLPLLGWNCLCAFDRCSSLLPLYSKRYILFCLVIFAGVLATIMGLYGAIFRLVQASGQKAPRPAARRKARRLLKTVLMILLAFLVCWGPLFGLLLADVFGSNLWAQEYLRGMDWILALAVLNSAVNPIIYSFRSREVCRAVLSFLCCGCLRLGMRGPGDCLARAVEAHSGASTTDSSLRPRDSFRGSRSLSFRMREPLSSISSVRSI
As to the kind of experiment: Tango β-arrestin recruitment assay, Tango-hS1P4-CHO. The data set is classed as cell-based. Particulars: final concentration 45 µM, 9 serial dilutions at 5-fold intervals; 20 h drug treatment; luciferase readout.
Description: as §1, §2, §3, §4

Data set [1] concerns Duchenne muscular dystrophy model mice. As to the kind of experiment: In vivo pharmacodynamic test in Duchenne muscular dystrophy model mice (Compound 30). The procedure: Experimental Animals: A total of 35 Duchenne muscular dystrophy model mice were divided into 6 groups as shown below.
Intragastric administration was initiated from Day 0. Body weight was measured daily during the experiment to adjust the drug dosage. Grip strength tests were performed every 2 days to observe changes in the mice's grip strength until the experiment concluded on Day 21. Changes in the limb grip strength, serum creatine kinase content, and muscle fibrosis/inflammation in the mice were detected as indicators for evaluating drug efficacy.
(§5) The mouse was placed horizontally on the grip test board. The mouse's tail was held and pulled gently in the opposite direction without using excessive force. The tail was gradually pulled until the mouse released the grip force sensor. The maximum value recorded by the grip force sensor is the grip strength. The test was repeated for 3 times and the average value was taken.
(§6) After the completion of administration, blood was collected via the orbital sinus, allowed to stand for 30 minutes, centrifuged at 3000 rpm at 4°C for 15 minutes, and serum was extracted, stored frozen at -20°C, and detected in accordance with the kit instructions.
(§7) After the experiment, the tibialis anterior, extensor digitorum longus, and diaphragm of the mice were harvested, fixed, sectioned, and subjected to HE staining and Sirius Red staining to observe the degree of muscle fibrosis. The slice was subjected to immunofluorescence staining with F4/80 to observe the level of muscle inflammation.

Data set [2] concerns S1PR4-R82C/NDUFA10-R217W double-mutant mice. The experiment in a line: In vivo efficacy in S1PR4-R82C/NDUFA10-R217W double-mutant muscular dystrophy mice. Particulars: 1 mg/kg intragastric once daily. The procedure: Experimental Animals: A total of 34 S1PR4-R82C/NDUFA10-R217W mice were divided into 6 groups as shown below.
Intragastric administration was initiated on Day 0, and body weight was measured daily during the experiment to adjust the drug dosage. Grip strength was measured at the beginning and end of the experiment to observe motor changes in mice. Changes in the limb grip strength, serum creatine kinase content, and muscle fibrosis/inflammation in mice were detected as indicators for evaluating drug efficacy.
as §5, §6, §7

[3] abbreviates: 1 mg/kg intragastric once daily.

T1 sequence (P21453 whole entry): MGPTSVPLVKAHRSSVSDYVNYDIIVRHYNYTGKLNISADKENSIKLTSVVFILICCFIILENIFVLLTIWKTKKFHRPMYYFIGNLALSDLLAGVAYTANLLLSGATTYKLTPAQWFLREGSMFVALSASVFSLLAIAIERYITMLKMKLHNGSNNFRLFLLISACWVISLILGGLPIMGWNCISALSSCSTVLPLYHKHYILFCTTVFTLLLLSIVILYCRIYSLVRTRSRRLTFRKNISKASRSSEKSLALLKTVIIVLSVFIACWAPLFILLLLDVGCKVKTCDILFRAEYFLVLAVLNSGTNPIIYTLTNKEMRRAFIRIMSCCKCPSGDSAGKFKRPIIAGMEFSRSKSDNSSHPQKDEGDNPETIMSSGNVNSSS

Take `CCc1cc(/C(C)=N/OCc2ccc(OC(C)C)c(C#N)c2)ccc1CN1CC(C(=O)O)C1` [Compound 16, (E)-1-(4-(1-(((3-cyano-4-isopropoxybenzyl)oxy)imino)ethyl)-2-ethylbenzyl)azetidine-3-carboxylic acid]: the concentration for a half-maximal effect (EC50) (commonly the concentration at which the effect is half-maximal) at hS1P1 is 23.2 ± 10.9 nM.

On to `CCc1cc(/C(C)=N/OCc2ccc(-c3cncnc3C)c(C)c2)ccc1CN1CC[C@H](C(=O)O)C1` [Compound 83, (S, E)-1-(2-ethyl-4-(1-(((3-methyl-4-(4-methylpyrimidin-5-yl)benzyl)oxy)imino)ethyl)benzyl)pyrrolidine-3-carboxylic acid], for which a half-maximal response on hS1P4 (EC50) required 40.95 ± 0.22 nM.

The compound `CCc1cc(/C(C)=N/OCc2cccc(C(F)(F)F)c2)ccc1CN1CC(C(=O)O)C1` [Compound 13] returned an EC50 on hS1P1 of 5100 ± 1510 nM.

At hS1P4, `CCc1cc(/C(C)=N/OCc2ccc(-c3cnc(F)cn3)c(C)c2)ccc1CN1CCC(C(=O)O)C1` (stereo not drawn) [Compound 4, (E)-1-(2-ethyl-4-(1-(((4-(5-fluoropyrazin-2-yl)-3-methylbenzyl)oxy)imino)ethyl)benzyl)pyrrolidine-3-carboxylic acid] showed an EC50 of 10.6 ± 1.19 nM.

At hS1P4, `CCc1cc(/C(C)=N/OCc2ccc(-c3cnsc3)cc2)ccc1CN1CC[C@H](C(=O)O)C1` [Compound 74] registered an EC50 of 13.13 ± 0.02 nM.

`CCc1cc(/C(C)=N/OCc2ccc(-c3ccns3)cc2)ccc1CN1CC[C@H](C(=O)O)C1` [Compound 75] yielded an EC50 on hS1P4 of 34.17 ± 0.22 nM.

Turning to `C[C@]12C=CC(=O)C=C1CC[C@@H]1[C@@H]2[C@@H](O)C[C@@]2(C)[C@H]1CC[C@]2(O)C(=O)CO` [prednisolone, reference compound], the “collagen deposition (collagen area ratio)” value in data set [1] (setting [3]) and in data set [2] (after administration) was “significantly reduced collagen deposition” throughout. In data set [1] (setting [3]), the “number of centrally nucleated fibers (HE staining)” value is “significantly reduced”. Also, the “serum creatine kinase level” value is “significantly reduced” in data set [1] (1 mg/kg intragastric once daily, after treatment) and “no such lowering effect; also recorded: no reduction” in data set [2] (after treatment). Also, the “body weight growth trend” value in data set [1] (1 mg/kg intragastric once daily, compared with the model group) was “no difference”. The “macrophage content (F4/80 immunofluorescence, muscle inflammation)” value in data set [1] (intragastric once daily) was “significantly reduced macrophage content”. Further, the “grip strength (ratio of grip strength to body weight)” value in data set [2] (after 21 days of treatment) is “significantly increased”. Moreover, the “body weight gain trend” value in data set [2] (compared with the model group) is given as “relatively slow”.

For the compound `CCc1cc(/C(C)=N/OCc2ccc(-c3cnc(F)cn3)c(C)c2)ccc1CN1CC[C@@H](C(=O)O)C1` [Compound 95, (R, E)-1-(2-ethyl-4-(1-(((4-(5-fluoropyrazin-2-yl)-3-methylbenzyl)oxy)imino)ethyl)benzyl)pyrrolidine-3-carboxylic acid], the values for the EC50 at hS1P1 and at hS1P4 were 125 ± 14.5 nM and 75.4 ± 5.72 nM, respectively.

At hS1P1, `CCc1cc(/C(C)=N/OCc2ccc(-c3cnc(F)cn3)c(C)c2)ccc1CN1CCC(C(=O)O)CC1` [Compound 90, (E)-1-(2-ethyl-4-(1-(((3-methyl-4-(5-fluoropyrazin-2-yl)-benzyl)oxy)imino)ethyl)benzyl)piperidine-4-carboxylic acid] returned an EC50 of 5950 ± 72.8 nM.

In turn, `CCc1cc(/C(C)=N/OCc2ccc3ccccc3c2)ccc1CN1CC(C(=O)O)C1` [Compound 15] gave an EC50 on hS1P4 of 560 ± 185 nM.

On to `CCc1cc(/C(C)=N/OCc2ccc(-c3cnc(F)cn3)cc2)ccc1CN1CC[C@H](C(=O)O)C1` [Compound 89], for which the EC50 stood at 5250 ± 235 nM at hS1P1 and 135 ± 17.8 nM on hS1P4.

With `C/C(=N\OCc1ccc(C2CCCCC2)c(C(F)(F)F)c1)c1ccc(CN2CC(C(=O)O)C2)c(F)c1` [Compound 11], the concentration giving a half-maximal response (EC50) was 5.63 ± 0.15 nM at hS1P1 and 573 ± 106 nM on hS1P4.

Consider `CCc1cc(/C(C)=N/OCc2ccc(-c3cccs3)cc2)ccc1CN1CC[C@H](C(=O)O)C1` [Compound 73], for which the response on hS1P4 was half-maximal at 10.7 ± 0.11 nM (EC50).

As for `CCc1cc(/C(C)=N/OCc2ccc(-c3cnc(F)cn3)c(C)c2F)ccc1CN1CC[C@H](C(=O)O)C1` [Compound 93, (S, E)-1-(2-ethyl-4-(1-(((2-fluoro-4-(5-fluoropyrazin-2-yl)-3-methylbenzyl)oxy)imino)ethyl)benzyl)pyrrolidine-3-carboxylic acid], the values for the EC50 on hS1P1 and at hS1P4 were 348 ± 40.4 nM and 12 ± 1 nM, respectively.

Turning to `CCc1cc(/C(C)=N/OCc2ccc(-c3cnc(F)cn3)c(F)c2)ccc1CN1CC[C@H](C(=O)O)C1` [Compound 88, (S, E)-1-(2-ethyl-4-(1-(((3-fluoro-4-(5-fluoropyrazin-2-yl)benzyl)oxy)imino)ethyl)benzyl)pyrrolidine-3-carboxylic acid], the EC50 amounted to 3210 ± 112 nM at hS1P1 and 27.4 ± 1.12 nM at hS1P4.

In the case of `CCc1cc(/C(C)=N/OCc2cc(C)c(-c3cnc(F)cn3)cc2F)ccc1CN1CC[C@H](C(=O)O)C1` [Compound 94, (S, E)-1-(2-ethyl-4-(1-(((2-fluoro-4-(5-fluoropyrazin-2-yl)-5-methylbenzyl)oxy)imino)ethyl)benzyl)pyrrolidine-3-carboxylic acid], the EC50 came to 614 ± 50.2 nM on hS1P1 and 13.9 ± 1.48 nM on hS1P4.

The compound `CCc1cc(/C(C)=N/OCc2ccc(-c3cnc(F)nc3)c(C)c2)ccc1CN1CC[C@H](C(=O)O)C1` [Compound 80, (S, E)-1-(2-ethyl-4-(1-(((4-(2-fluoropyrimidin-5-yl)-3-methylbenzyl)oxy)imino)ethyl)benzyl)pyrrolidine-3-carboxylic acid] yielded a concentration for a half-maximal effect (EC50) on hS1P4 of 18 ± 0.525 nM.

In the case of `CCc1cc(/C(C)=N/OCc2ccc(-c3cnc(F)cn3)c(C)c2)ccc1CN1CC(C(=O)O)C1` [Compound 91, (E)-1-(2-ethyl-4-(1-(((3-methyl-4-(5-fluoropyrazin-2-yl)-benzyl)oxy)imino)ethyl)benzyl)azetidine-3-carboxylic acid], on hS1P1, the EC50 is 54.45 ± 0.2 nM.

As for `CCc1cc(/C(C)=N/OCc2ccc(-c3cncnc3)cc2)ccc1CN1CC[C@H](C(=O)O)C1` [Compound 70, (S, E)-1-(2-ethyl-4-(1-(((4-(pyrimidin-5-yl)benzyl)oxy)imino)ethyl)benzyl)pyrrolidine-3-carboxylic acid], the EC50 at hS1P4 worked out at 36.2 ± 6.58 nM.
